According to US11590116B2 (THERAVANCE BIOPHARMA R&D IP, LLC, priority 2019, dated 2023):

Tests used:
[1] = target: T1, recombinant human ALK5 (TGF-βR1) protein (Homo sapiens, UniProt P36897); test: Biochemical ALK5 (TGF-βR1) assay to measure pKi (LANCE Ultra ULight kinase assay); conditions: apparent pKi from pIC50 by Cheng-Prusoff, read-out: ALK5 pKi (converted)
T1 construct: purchased Life Technologies PR9075A
T1 sequence (P36897 34-503): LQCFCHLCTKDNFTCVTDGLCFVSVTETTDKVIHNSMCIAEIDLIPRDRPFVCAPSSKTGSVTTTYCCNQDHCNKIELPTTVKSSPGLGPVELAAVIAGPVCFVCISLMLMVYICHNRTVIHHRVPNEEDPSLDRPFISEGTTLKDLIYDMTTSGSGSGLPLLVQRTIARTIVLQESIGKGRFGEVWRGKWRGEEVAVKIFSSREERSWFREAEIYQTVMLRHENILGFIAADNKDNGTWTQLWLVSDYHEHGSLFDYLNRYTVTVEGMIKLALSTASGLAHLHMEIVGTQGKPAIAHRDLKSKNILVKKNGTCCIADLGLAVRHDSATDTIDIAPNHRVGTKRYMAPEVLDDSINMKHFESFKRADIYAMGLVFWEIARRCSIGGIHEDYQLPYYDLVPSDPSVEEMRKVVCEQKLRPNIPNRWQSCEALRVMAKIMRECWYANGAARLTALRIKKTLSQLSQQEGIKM
In short: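 Dose range 10 μM–25 pM; enzyme + compound 60 min RT; ATP added (5× stock 125 μM, 2 mM DTT); 60 min 37 °C; stop with EDTA + Eu anti-phospho-Topo IIα Thr1342 Ab; TR-FRET ex 320/340, em 665 nm. 4-param pIC50 → pKi (Cheng-Prusoff).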

[2] = system: TGF-β-stimulated SMAD3 phosphorylation in BEAS-2B cells; test: Cellular ALK5 potency assay, inhibition of TGF-β stimulated pSMAD3 formation in BEAS-2B cells; assay type: cell-based; conditions: Homo sapiens; inhibition of TGF-β stimulated pSMAD3 formation, BEAS-2B cells; read-out: BEAS2B pIC50 (converted)
In short: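 AlphaLISA pSMAD3 read-out, beads incubated overnight. Human BEAS-2B cells: 1 h compound preincubation (37 °C, 5% CO2), then 30 min TGF-β at 10 ng/mL final, immediate lysis. Values are pIC50 relative to stimulated, compound-free baseline.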

Row | Structure (SMILES) | Ki [1] | IC50 [2]
1 | Cc1cccc(-c2n[nH]cc2-c2ccc3ncc(CCCN4CCOCC4)cc3n2)n1 [Compound 261, 4-[3-[6-[3-(6-methyl-2-pyridyl)-1H-pyrazol-4-yl]-1,5-naphthyridin-3-yl]propyl]morpholine] | 0.0398 to 0.316 nM | 25.1 to 158 nM
2 | Cc1cccc(-c2[nH]cnc2-c2ccc3ncc(N4CCC(NC(=O)[C@@H]5CCCN5)CC4)cc3c2)n1 [Compound 388, (2S)-N-[1-[6-[5-(6-methyl-2-pyridyl)-1H-imidazol-4-yl]-3-quinolyl]-4-piperidyl]pyrrolidine-2-carboxamide] | 0.0398 to 0.316 nM | 200 to 1260 nM
3 | Cc1cccc(-c2[nH]ncc2-c2ccc3ncc(C(=O)N4CC(N5CCOCC5)C4)cc3n2)n1 [Compound 352, [6-[5-(6-methyl-2-pyridyl)-1H-pyrazol-4-yl]-1,5-naphthyridin-3-yl]-(3-morpholinoazetidin-1-yl)methanone] | 3.98 to 31.6 nM | 200 to 1260 nM
4 | CC(C)N1CCN(CCNc2cnc3ccc(-c4c[nH]nc4-c4cccc(C(F)(F)F)n4)nc3c2)CC1 [Compound 201, N-(2-(4-isopropylpiperazin-1-yl)ethyl)-6-(3-(6-(trifluoromethyl)pyridin-2-yl)-1H-pyrazol-4-yl)-1,5-naphthyridin-3-amine] | 0.0398 to 0.316 nM | 25.1 to 158 nM
5 | Cc1cccc(-c2[nH]ncc2-c2ccc3ncc(C(=O)O[C@@H]4CCNC4)cc3n2)n1 [Compound 195, [(3R)-pyrrolidin-3-yl] 6-[5-(6-methyl-2-pyridyl)-1H-pyrazol-4-yl]-1,5-naphthyridine-3-carboxylate] | 0.398 to 3.16 nM | 25.1 to 158 nM
6 | Cc1cccc(-c2nc3ccccn3c2-c2ccc3ncc(N4CCNCC4)cc3n2)n1 [Compound 473, 2-[2-(6-methyl-2-pyridyl)imidazo[1,2-a]pyridin-3-yl]-7-piperazin-1-yl-1,5-naphthyridine] | 0.0398 to 0.316 nM | 25.1 to 158 nM
7 | Cc1cccc(-c2n[nH]cc2-c2ccc3ncc(-c4[nH]nc5c4CNCC5)cc3n2)n1 [Compound 489, 2-[3-(6-methyl-2-pyridyl)-1H-pyrazol-4-yl]-7-(4,5,6,7-tetrahydro-2H-pyrazolo[4,3-c]pyridin-3-yl)-1,5-naphthyridine] | 0.0398 to 0.316 nM | 200 to 1260 nM
8 | Cc1cccc(-c2n[nH]cc2-c2ccc3ncc(N(C)C4CCN(C)C4)cc3n2)n1 (racemic) [Compound 140, N-methyl-6-[3-(6-methyl-2-pyridyl)-1H-pyrazol-4-yl]-N-[rac-(3R)-1-methylpyrrolidin-3-yl]-1,5-naphthyridin-3-amine] | < 0.0316 nM | 25.1 to 158 nM
9 | CNCCn1cc(-c2cnc3ccc(-c4nc[nH]c4-c4cccc(C)n4)cc3c2)cn1 [Compound 17, N-methyl-2-(4-(6-(5-(6-methylpyridin-2-yl)-1H-imidazol-4-yl)quinolin-3-yl)-1H-pyrazol-1-yl)ethan-1-amine] | < 0.0316 nM | 25.1 to 158 nM
10 | Cc1cccc(-c2[nH]cnc2-c2ccc3ncc(Nc4nc(CN5CCNCC5)cs4)cc3c2)n1 [Compound 164, N-[6-[5-(6-methyl-2-pyridyl)-1H-imidazol-4-yl]-3-quinolyl]-4-(piperazin-1-ylmethyl)thiazol-2-amine] | 0.0398 to 0.316 nM | 200 to 1260 nM
11 | Cc1cccc(-c2n[nH]cc2-c2ccc3ncc(N4CCNC5(CCC5)C4)cc3n2)n1 [Compound 223, 7-(5,8-diazaspiro[3.5]nonan-8-yl)-2-[3-(6-methyl-2-pyridyl)-1H-pyrazol-4-yl]-1,5-naphthyridine] | 0.0398 to 0.316 nM | 25.1 to 158 nM
12 | COCC1CN(c2cnc3ccc(-c4c[nH]nc4-c4cccc(C)n4)nc3c2)CCN1 (racemic) [Compound 298, 2-[3-(6-methyl-2-pyridyl)-1H-pyrazol-4-yl]-7-[rac-(3R)-3-(methoxymethyl)piperazin-1-yl]-1,5-naphthyridine] | 0.0398 to 0.316 nM | 25.1 to 158 nM
13 | Cc1cccc(-c2nc3ccccn3c2-c2ccc3ncc(-c4cnc5n4CCN5)cc3n2)n1 [Compound 23, 7-(6,7-dihydro-5H-imidazo[1,2-a]imidazol-3-yl)-2-[2-(6-methyl-2-pyridyl)imidazo[1,2-a]pyridin-3-yl]-1,5-naphthyridine] | < 0.0316 nM | 25.1 to 158 nM

Second part, led by results:

Row | Ki [1] | Structure (SMILES) | IC50 [2]
14 | 0.0398 to 0.316 nM | CNCCn1cc(-c2cnc3ccc(-c4c(-c5cccc(C)n5)nn5cc(Cl)ccc45)cc3c2)cn1 [Compound 605, 2-[4-[6-[6-chloro-2-(6-methyl-2-pyridyl)pyrazolo[1,5-a]pyridin-3-yl]-3-quinolyl]pyrazol-1-yl]-N-methyl-ethanamine] | 200 to 1260 nM
15 | 0.0398 to 0.316 nM | Cc1cccc(-c2n[nH]cc2-c2ccc3ncc(-c4coc(CCN5CCNCC5)n4)cc3n2)n1 [Compound 697, 4-[6-[3-(6-methyl-2-pyridyl)-1H-pyrazol-4-yl]-1,5-naphthyridin-3-yl]-2-(2-piperazin-1-ylethyl)oxazole] | 200 to 1260 nM
16 | 0.0398 to 0.316 nM | Cc1cccc(-c2[nH]cnc2-c2ccc3ncc(-c4csc(C(=O)O[C@@H]5CCN(C)C5)c4)cc3c2)n1 [Compound 750, [(3R)-1-methylpyrrolidin-3-yl] 4-[6-[5-(6-methyl-2-pyridyl)-1H-imidazol-4-yl]-3-quinolyl]thiophene-2-carboxylate] | < 20 nM
17 | 0.0398 to 0.316 nM | Cc1cccc(-c2[nH]cnc2-c2ccc3ncc(C(=O)O[C@H]4C[C@H](N)C4)cc3c2)n1 [Compound 782, (3-aminocyclobutyl) 6-[5-(6-methyl-2-pyridyl)-1H-imidazol-4-yl]quinoline-3-carboxylate] | 25.1 to 158 nM
18 | < 0.0316 nM | Cc1cccc(-c2[nH]cnc2-c2ccc3ncc(-c4nc5c(s4)CCNC5)cc3c2)n1 [Compound 727, 2-(6-(5-(6-methylpyridin-2-yl)-1H-imidazol-4-yl)quinolin-3-yl)-4,5,6,7-tetrahydrothiazolo[4,5-c]pyridine] | < 20 nM
19 | 3.98 to 31.6 nM | Cc1cccc(-c2c(-c3ccc4ncc(N5CCC(N6CCN(C)CC6)CC5)cc4c3)nnn2Cc2ccccc2)n1 [Compound 578, 6-[1-benzyl-5-(6-methyl-2-pyridyl)triazol-4-yl]-3-[4-(4-methylpiperazin-1-yl)-1-piperidyl]quinoline] | 1580 to 10000 nM
20 | 0.0398 to 0.316 nM | Cc1nc(-c2n[nH]cc2-c2ccc3ncc(-c4cnn([C@@H]5CCC[C@@H]5N)c4)cc3n2)ccc1F [Compound 569, (1S,2R)-2-[4-[6-[3-(5-fluoro-6-methyl-2-pyridyl)-1H-pyrazol-4-yl]-1,5-naphthyridin-3-yl]pyrazol-1-yl]cyclopentanamine] | 25.1 to 158 nM
21 | < 0.0316 nM | Cc1cccc(-c2[nH]ncc2-c2ccc3ncc(C(=O)OCCN4CCC[C@H](N)C4)cc3c2)n1 [Compound 1191, 2-[(3S)-3-amino-1-piperidyl]ethyl 6-[5-(6-methyl-2-pyridyl)-1H-pyrazol-4-yl]quinoline-3-carboxylate] | 25.1 to 158 nM
22 | 0.0398 to 0.316 nM | CNC1CN(c2cnc3ccc(-c4nc[nH]c4-c4cccc(C)n4)cc3c2)C1 [Compound 614, N-methyl-1-[6-[5-(6-methyl-2-pyridyl)-1H-imidazol-4-yl]-3-quinolyl]azetidin-3-amine] | 25.1 to 158 nM
23 | 0.398 to 3.16 nM | Cc1cccc(-c2[nH]cnc2-c2ccc3ncc(N4CCNC(CC(=O)OC5CCNCC5)C4)cc3c2)n1 (stereo not shown) [Compound 689, 4-piperidyl 2-[4-[6-[5-(6-methyl-2-pyridyl)-1H-imidazol-4-yl]-3-quinolyl]piperazin-2-yl]acetate] | 200 to 1260 nM
